Some test systems named below: DMS-273; SNB-78; KM-20L2; LXFL 529; RXF 631; M19-MEL; XF498; DLD-1; DMS-114.
Common to all, as to experiment: NCI anticancer screen, dose series, 48 h

Structures are written as SMILES.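 Compound exposure: 48 hours, 5 concentrations, 96-well plates. At the GI50, growth is halved.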 The source made the active and inactive calls. No stated cut-off is given here; in the data, active = GI50 up to about 1.1 µM and inactive = higher.

Consider `CCC(C)(C)C(=O)O[C@H]1C[C@@H](C)C=C2C=C[C@H](C)[C@H](CC[C@@H]3C[C@@H](O)CC(=O)O3)[C@H]21` [SIMVASTATIN], for which the GI50 in the assay with DMS-273 was 2.88 µM (inactive); with SNB-78 it was > 30 µM (inactive); in the assay on KM-20L2, 12.3 µM (inactive); in the assay with LXFL 529, 6.67 µM (inactive); with RXF 631 it was 0.55 µM (active); in the assay with M19-MEL, 1.56 µM (inactive). The values for the GI50 in the assay on XF498, in the assay on DLD-1 and in the assay on DMS-114 were > 30 µM (inactive), > 30 µM (inactive) and 23.7 µM (inactive), respectively.

The values are drawn from ChEMBL document CHEMBL1201862, “PubChem BioAssay data set” (2004).
